PubChem BioAssay AID248 (DTP/NCI, 2004)
Values joined by “and” are separate entries in the source; they are usually repeats but may differ in a detail not shown here. Equal values may be shown once. Inconclusive results and toxic doses are left out. No stated cut-off is given here; in the data, active means T/C of 150% or more; inactive means T/C below 125%.

System: L1210 leukemia ip in BDF1 mice, survival T/C
Assay: NCI In Vivo Anticancer Drug Screen. Data for tumor model L1210 Leukemia (intraperitoneal) in B6D2F1 (BDF1) mice
Details: higher = longer survival
How it was run: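 Transplanted-tumor mice were given test agent; controls received vehicle only. Survival readings from the two groups were divided (treated over control).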

Measured: T/C

O=c1[nH]c(=O)n(C2CC(O)C(CO)O2)cc1F (configuration not stated)
inactive: endpoint: mean survival time, dose: 2.3 mg/kg/injection, schedule: Q01DX009 (ip), vehicle: saline 95 % of control and 100 % of control | endpoint: mean survival time, dose: 2.5 mg/kg/injection, schedule: Q01DX009 (ip), vehicle: saline 105 % of control | endpoint: mean survival time, dose: 3.12 mg/kg/injection, schedule: Q#A X Z (ip), vehicle: saline 109 % of control | endpoint: mean survival time, dose: 4.5 mg/kg/injection, schedule: Q01DX009 (ip), vehicle: saline 106 % of control | endpoint: mean survival time, dose: 5.0 mg/kg/injection, schedule: Q01DX009 (ip), vehicle: saline 103 % of control | endpoint: mean survival time, dose: 5.0 mg/kg/injection, schedule: Q01DX009 (oral), vehicle: saline 105 % of control | endpoint: mean survival time, dose: 6.25 mg/kg/injection, schedule: Q01DX Z (ip), vehicle: saline 105 % of control | endpoint: mean survival time, dose: 6.25 mg/kg/injection, schedule: Q#A X Z (ip), vehicle: saline 114 % of control | endpoint: mean survival time, dose: 9.0 mg/kg/injection, schedule: Q01DX009 (ip), vehicle: saline 103 % of control and 110 % of control | endpoint: mean survival time, dose: 10.0 mg/kg/injection, schedule: Q01DX005 (ip), vehicle: water 99 % of control and 102 % of control | endpoint: mean survival time, dose: 10.0 mg/kg/injection, schedule: Q01DX009 (ip), vehicle: saline 112 % of control | endpoint: mean survival time, dose: 10.0 mg/kg/injection, schedule: Q01DX009 (oral), vehicle: saline 98 % of control | endpoint: mean survival time, dose: 11.0 mg/kg/injection, schedule: Q07DX Z (ip), vehicle: saline 106 % of control | endpoint: mean survival time, dose: 12.5 mg/kg/injection, schedule: Q01DX Z (ip), vehicle: saline 111 % of control | endpoint: mean survival time, dose: 18.0 mg/kg/injection, schedule: Q04DX002 (ip), vehicle: saline 106 % of control and 115 % of control | endpoint: mean survival time, dose: 20.0 mg/kg/injection, schedule: Q01DX009 (oral), vehicle: saline 105 % of control | endpoint: mean survival time, dose: 20.0 mg/kg/injection, schedule: Q01DX015 (ip), vehicle: water 111 % of control | endpoint: mean survival time, dose: 20.0 mg/kg/injection, schedule: Q01DX Z (ip), vehicle: saline 105 % of control | endpoint: mean survival time, dose: 22.0 mg/kg/injection, schedule: Q07DX Z (ip), vehicle: saline 102 % of control | endpoint: mean survival time, dose: 25.0 mg/kg/injection, schedule: Q01DX006 (iv), vehicle: saline 110 % of control | endpoint: mean survival time, dose: 25.0 mg/kg/injection, schedule: Q01DX Z (ip), vehicle: saline 111 % of control | endpoint: mean survival time, dose: 25.0 mg/kg/injection, schedule: Q01DX Z (sc), vehicle: saline 111 % of control | endpoint: mean survival time, dose: 25.9 mg/kg/injection, schedule: Q01DX009 (ip), vehicle: saline 115 % of control | endpoint: mean survival time, dose: 29.0 mg/kg/injection, schedule: Q02DX008 (ip), vehicle: water 98 % of control | endpoint: mean survival time, dose: 30.0 mg/kg/injection, schedule: Q01DX015 (ip), vehicle: water 108 % of control | endpoint: mean survival time, dose: 30.0 mg/kg/injection, schedule: Q01DX Z (ip), vehicle: saline 106 % of control | endpoint: mean survival time, dose: 36.0 mg/kg/injection, schedule: Q04DX002 (ip), vehicle: saline 100 % of control and 110 % of control | endpoint: mean survival time, dose: 40.0 mg/kg/injection, schedule: Q01DX Z (ip), vehicle: saline 112 % of control | endpoint: mean survival time, dose: 42.0 mg/kg/injection, schedule: Q02DX008 (ip), vehicle: water 101 % of control | endpoint: mean survival time, dose: 44.0 mg/kg/injection, schedule: Q07DX Z (ip), vehicle: saline 106 % of control | endpoint: mean survival time, dose: 50.0 mg/kg/injection, schedule: Q01DX001 (ip), vehicle: saline 107 % of control | endpoint: mean survival time, dose: 50.0 mg/kg/injection, schedule: Q01DX Z (oral), vehicle: saline 107 % of control | endpoint: mean survival time, dose: 50.0 mg/kg/injection, schedule: Q02DX009 (ip), vehicle: saline 110 % of control | endpoint: mean survival time, dose: 50.0 mg/kg/injection, schedule: Q04DX003 (ip), vehicle: saline 105 % of control | endpoint: mean survival time, dose: 60.0 mg/kg/injection, schedule: Q## X004 (ip), vehicle: water 108 % of control | endpoint: mean survival time, dose: 63.0 mg/kg/injection, schedule: Q02DX008 (ip), vehicle: water 111 % of control | endpoint: mean survival time, dose: 75.0 mg/kg/injection, schedule: Q03DX006 (ip), vehicle: saline 111 % of control | endpoint: mean survival time, dose: 80.0 mg/kg/injection, schedule: Q01DX Z (ip), vehicle: saline 102 % of control | endpoint: mean survival time, dose: 80.0 mg/kg/injection, schedule: Q## X032 (ip), vehicle: water 108 % of control | endpoint: mean survival time, dose: 88.0 mg/kg/injection, schedule: Q07DX Z (ip), vehicle: saline 113 % of control | endpoint: mean survival time, dose: 90.0 mg/kg/injection, schedule: Q## X004 (ip), vehicle: water 98 % of control | endpoint: mean survival time, dose: 100.0 mg/kg/injection, schedule: Q01DX001 (ip), vehicle: saline 104 % of control and 110 % of control | endpoint: mean survival time, dose: 100.0 mg/kg/injection, schedule: Q01DX001 (ip), vehicle: water 100 % of control | endpoint: mean survival time, dose: 100.0 mg/kg/injection, schedule: Q01DX005 (ip), vehicle: saline 116 % of control | endpoint: mean survival time, dose: 100.0 mg/kg/injection, schedule: Q01DX Z (sc), vehicle: saline 111 % of control | endpoint: mean survival time, dose: 100.0 mg/kg/injection, schedule: Q04DX003 (ip), vehicle: saline 111 % of control | endpoint: mean survival time, dose: 100.0 mg/kg/injection, schedule: Q04DX005 (ip), vehicle: saline 115 % of control | endpoint: mean survival time, dose: 100.0 mg/kg/injection, schedule: Q#A X Z (ip), vehicle: saline 105 % of control | endpoint: mean survival time, dose: 125.0 mg/kg/injection, schedule: Q01DX001 (ip), vehicle: saline 112 % of control | endpoint: mean survival time, dose: 150.0 mg/kg/injection, schedule: Q01DX001 (ip), vehicle: water 102 % of control | endpoint: mean survival time, dose: 160.0 mg/kg/injection, schedule: Q01DX009 (ip), vehicle: saline 100 % of control | endpoint: mean survival time, dose: 160.0 mg/kg/injection, schedule: Q01DX009 (oral), vehicle: saline 101 % of control | endpoint: mean survival time, dose: 160.0 mg/kg/injection, schedule: Q01DX Z (ip), vehicle: saline 110 % of control | endpoint: mean survival time, dose: 175.0 mg/kg/injection, schedule: Q07DX003 (ip), vehicle: saline 114 % of control | endpoint: mean survival time, dose: 200.0 mg/kg/injection, schedule: Q01DX001 (ip), vehicle: saline 106 % of control and 107 % of control | endpoint: mean survival time, dose: 200.0 mg/kg/injection, schedule: Q01DX017 (ip), vehicle: saline 100 % of control | endpoint: mean survival time, dose: 200.0 mg/kg/injection, schedule: Q01DX Z (im), vehicle: saline 107 % of control | endpoint: mean survival time, dose: 200.0 mg/kg/injection, schedule: Q01DX Z (ip), vehicle: carboxymethylcellulose (CMC) 94 % of control | endpoint: mean survival time, dose: 200.0 mg/kg/injection, schedule: Q01DX Z (ip), vehicle: saline 102 % of control | endpoint: mean survival time, dose: 200.0 mg/kg/injection, schedule: Q01DX Z (sc), vehicle: saline 96 % of control | endpoint: mean survival time, dose: 200.0 mg/kg/injection, schedule: Q04DX002 (ip), vehicle: water 112 % of control | endpoint: mean survival time, dose: 225.0 mg/kg/injection, schedule: Q01DX001 (ip), vehicle: water 110 % of control | endpoint: mean survival time, dose: 250.0 mg/kg/injection, schedule: Q01DX001 (ip), vehicle: saline 109 % of control | endpoint: mean survival time, dose: 250.0 mg/kg/injection, schedule: Q01DX Z (ip), vehicle: saline 95 % of control | endpoint: mean survival time, dose: 270.0 mg/kg/injection, schedule: Q01DX009 (ip), vehicle: saline 115 % of control | endpoint: mean survival time, dose: 270.0 mg/kg/injection, schedule: Q## X009 (ip), vehicle: saline 115 % of control | endpoint: mean survival time, dose: 300.0 mg/kg/injection, schedule: Q02DX010 (ip), vehicle: other 108 % of control | endpoint: mean survival time, dose: 320.0 mg/kg/injection, schedule: Q01DX009 (ip), vehicle: saline 101 % of control and 108 % of control | endpoint: mean survival time, dose: 320.0 mg/kg/injection, schedule: Q01DX009 (oral), vehicle: saline 93 % of control | endpoint: mean survival time, dose: 335.0 mg/kg/injection, schedule: Q01DX001 (ip), vehicle: saline 115 % of control | endpoint: mean survival time, dose: 350.0 mg/kg/injection, schedule: Q01DX Z (ip), vehicle: saline 104 % of control | endpoint: mean survival time, dose: 375.0 mg/kg/injection, schedule: Q04DX003 (ip), vehicle: saline 112 % of control | endpoint: mean survival time, dose: 400.0 mg/kg/injection, schedule: Q01DX001 (ip), vehicle: saline 116 % of control | endpoint: mean survival time, dose: 400.0 mg/kg/injection, schedule: Q01DX009 (ip), vehicle: saline 102 % of control | endpoint: mean survival time, dose: 400.0 mg/kg/injection, schedule: Q01DX Z (oral), vehicle: saline 105 % of control | endpoint: mean survival time, dose: 400.0 mg/kg/injection, schedule: Q02DX009 (ip), vehicle: saline 100 % of control | endpoint: mean survival time, dose: 450.0 mg/kg/injection, schedule: Q02DX010 (ip), vehicle: carboxymethylcellulose (CMC) 113 % of control | endpoint: mean survival time, dose: 450.0 mg/kg/injection, schedule: Q02DX010 (ip), vehicle: other 92 % of control | endpoint: mean survival time, dose: 500.0 mg/kg/injection, schedule: Q04DX003 (ip), vehicle: saline 105 % of control | endpoint: mean survival time, dose: 640.0 mg/kg/injection, schedule: Q01DX009 (ip), vehicle: saline 95 % of control | endpoint: mean survival time, dose: 640.0 mg/kg/injection, schedule: Q01DX009 (oral), vehicle: saline 96 % of control | endpoint: mean survival time, dose: 700.0 mg/kg/injection, schedule: Q07DX003 (ip), vehicle: saline 111 % of control | endpoint: mean survival time, dose: 714.0 mg/kg/injection, schedule: Q02DX008 (ip), vehicle: saline 113 % of control | endpoint: mean survival time, dose: 750.0 mg/kg/injection, schedule: Q01DX001 (ip), vehicle: saline 112 % of control | endpoint: mean survival time, dose: 800.0 mg/kg/injection, schedule: Q01DX001 (ip), vehicle: water 108 % of control | endpoint: mean survival time, dose: 800.0 mg/kg/injection, schedule: Q01DX Z (oral), vehicle: saline 108 % of control | endpoint: mean survival time, dose: 800.0 mg/kg/injection, schedule: Q04DX003 (ip), vehicle: saline 113 % of control | endpoint: mean survival time, dose: 800.0 mg/kg/injection, schedule: Q04DX005 (ip), vehicle: saline 114 % of control | endpoint: mean survival time, dose: 1071.0 mg/kg/injection, schedule: Q02DX008 (ip), vehicle: saline 104 % of control | endpoint: mean survival time, dose: 1344.0 mg/kg/injection, schedule: Q## X032 (ip), vehicle: water 107 % of control | endpoint: median survival time, dose: 160.0 mg/kg/injection, schedule: Q01DX009 (ip), vehicle: saline 100 % of control | endpoint: median survival time, dose: 320.0 mg/kg/injection, schedule: Q01DX009 (ip), vehicle: saline 106 % of control
